Results from patent US20240024228A1, “Apremilast Ophthalmic Compositions” (APRAMITHA INNOVATIONS PRIVATE LIMITED, priority 2020, published 2024).

Experiments:
[1] = cited from earlier work
[2] = Solubility study of Apremilast in surfactants and their combinations; type: physicochemical
Experimental: The solubility of Apremilast was evaluated in various surfactants and their combinations:
About 50 mg of Apremilast (0.05% w/w) was weighed and dissolved in surfactant and or combination of surfactants at different ratios by heating at a temperature below 85° C. After complete solubilization of the Apremilast in the solubilizer matrix, purified water (q.s to 100%) was added, vortexed for 2 minutes and kept aside.

[3] = dissolved by heating below 85° C., water q.s., observed 24 hrs to 1 week

CCOc1cc([C@@H](CS(C)(=O)=O)N2C(=O)c3cccc(NC(C)=O)c3C2=O)ccc1OC [Apremilast, N-[2-[(1S)-1-(3-ethoxy-4-methoxyphenyl)-2-(methylsulfonyl)ethyl]-1,3-dioxo-2,3-dihydro-1H-isoindol-4-yl]acetamide]
Solubility in polar solvents ([1]; polar solvents): minimal solubility
Solubility in water ([1]; water): insolubility
Solubility in combination of surfactants (Tween 80 and Kolliphore E L) with PEG400 [2]: good solubility
Stabilization of API ([2]; PEG400 in combination with Tween 80/Kolliphore E L): stabilized
Surfactant concentration sufficient to stabilise Apremilast ([2]; Tween 80 / kolliphor E. L, 0.001-0.9% w/w of Apremilast): 4 % w/w
Precipitation of Apremilast ([2]; below 2-8% Tween80 / kolliphor E. L concentration): precipitated out
Appearance of solution / prevention of precipitation ([2]; combination of Tween 80 and kolliphor E. L): clear solution
Solubility in Tween 80 [2, 3]: good solubility
Solubility in kolliphor E. L [2, 3]: good solubility
Precipitation of Apremilast ([2]; with 2-8% Tween80 and 2-8% kolliphor E. L): not observed
Precipitation of Apremilast ([2]; with 5% PEG 400 alone): precipitation was observed
